Data as given in paper PMC8964029 (Pharmaceutical Research, 2022).
Like-named read-outs stand apart in the source and are kept apart here.

Experiments:
[1] = format: in vivo, human; details: for AUC0-24h, ratio of geometric mean (95% CI) / Cmax, ratio of geometric mean (95% CI) / Cmin, ratio of geometric mean (95% CI): erlotinib 75 mg QD + ritonavir 200 mg QD versus erlotinib monotherapy 150 mg QD; for Cmax / Cmin (trough concentration) / AUC0-24h: steady state, geometric mean (CV%)
[2] = Treatment-related adverse events graded according to CTCAE version 5.0; format: in vivo, human; details: nine patients
[3] = healthy volunteers, co-administration of ketoconazole; cited from earlier work
CYP3A4 = details: remaining part by CYP1A2; cited from earlier work
[4] = cited from earlier work
[5] = plasma, erlotinib 75 mg QD + ritonavir 200 mg QD
[6] = plasma, erlotinib monotherapy 150 mg QD
[7] = versus erlotinib monotherapy, result in words
[8] = erlotinib 75 mg QD + ritonavir 200 mg QD
[9] = erlotinib monotherapy 150 mg QD

## C#Cc1cccc(Nc2ncnc3cc(OCCO)c(OCCOC)cc23)c1 [OSI-413]
[1]
  AUC0-24h, ratio of geometric mean (95% CI): 0.53 (0.34 – 0.83)
  Cmax, ratio of geometric mean (95% CI): 0.48 (0.31 – 0.76)
  Cmin, ratio of geometric mean (95% CI): 0.59 (0.37 – 0.94)
[1]; [5]
  Cmax: 43.7 (134%) ng/mL
  Cmin (trough concentration): 29.4 (263%) ng/mL
[1]; plasma, erlotinib 75 mg QD + ritonavir 200 mg QD, nine patients
  AUC0-24h: 0.823 (174%) μg*h/mL
[1]; [6]
  Cmax: 90.0 (107%) ng/mL
  Cmin (trough concentration): 49.5 (152%) ng/mL
[1]; plasma, erlotinib monotherapy 150 mg QD, nine patients
  AUC0-24h: 1.55 (120%) μg*h/mL
[1]; [7]
  Change in AUC0-24h following the combination of erlotinib and ritonavir: statistically significant decrease
  Change in Cmax following the combination of erlotinib and ritonavir: statistically significant decrease

## C#Cc1cccc(Nc2ncnc3cc(OCCOC)c(OCCOC)cc23)c1 [Erlotinib, erlotinib]
[2]; combination of erlotinib with ritonavir
  Patients experiencing treatment-related adverse events: 56%
[2]; [8]
  Diarrhea grade 1 or 2, number of patients: 2
  Diarrhea ≥ grade 3, number of patients: 0
  Nausea grade 1 or 2, number of patients: 2
  Nausea ≥ grade 3, number of patients: 0
  Number of patients experiencing any AE: 5
  Skin rash grade 1 or 2, number of patients: 1
  Skin rash ≥ grade 3, number of patients: 0
[2]; [9]
  Diarrhea grade 1 or 2, number of patients: 2
  Diarrhea ≥ grade 3, number of patients: 0
  Nausea grade 1 or 2, number of patients: 0
  Nausea ≥ grade 3, number of patients: 0
  Number of patients experiencing any AE: 4
  Skin rash grade 1 or 2, number of patients: 3
  Skin rash ≥ grade 3, number of patients: 0
[2]; monotherapy erlotinib
  Patients with a treatment-related adverse event: 44%
[1]; human, plasma, oral, 150 mg
  AUC(0-t): 29300 ng·h/mL
[1]; [5]
  Cmin (trough concentration): 1.06 (165%) μg/mL
[1]; plasma, erlotinib 75 mg QD + ritonavir 200 mg QD, listed as erlotinib
  Cmin (trough concentration): 1.06 µg/mL
[1]; [6]
  Cmax: 1.84 (60%) μg/mL
  Cmin (trough concentration): 1.00 (62%) μg/mL
[3]
  Increase of AUC0-∞ of erlotinib by ketoconazole: approximately a twofold
  Increase of Cmax of erlotinib by ketoconazole: approximately a twofold
CYP3A4
  Share of erlotinib metabolized by CYP3A4: approximately 70%
[4]
  elimination half-life: approximately 36 h

## OSI-420
[1]
  AUC0-24h, ratio of geometric mean (95% CI): 0.31 (0.15 – 0.62)
  Cmax, ratio of geometric mean (95% CI): 0.28 (0.13 – 0.57)
  Cmin, ratio of geometric mean (95% CI): 0.41 (0.22 – 0.76)
[1]; [5]
  AUC0-24h: 118 (351%) ng*h/mL
  Cmax: 7.24 (230%) ng/mL
  Cmin (trough concentration): 4.34 (443%) ng/mL
[1]; [6]
  AUC0-24h: 380 (144%) ng*h/mL
  Cmax: 26.1 (141%) ng/mL
  Cmin (trough concentration): 10.5 (162%) ng/mL
[1]; [7]
  Change in AUC0-24h following the combination of erlotinib and ritonavir: statistically significant decrease
  Change in Cmax following the combination of erlotinib and ritonavir: statistically significant decrease
  Change in Cmin following the combination of erlotinib and ritonavir: statistically significant decrease

## CC(C)c1nc(CN(C)C(=O)N[C@H](C(=O)N[C@@H](Cc2ccccc2)C[C@H](O)[C@H](Cc2ccccc2)NC(=O)OCc2cncs2)C(C)C)cs1 [Ritonavir, ritonavir]
[1]; [5]
  Cmin (trough concentration): 0.243 (129%) μg/mL
